Measured values: patent US10882856B2 (BeiGene, Ltd., priority 2017, dated 2021)
pEC50, pIC50: −log10 of the molar value.

Assays:
IDO1 [1] = biological target: T1, IDO1 (Homo sapiens, UniProt P14902); test: Hela cell-based IDO1 assay; settings: Hela cells
Method in brief: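 Kynurenine was measured at 480 nm in trichloroacetic acid-deproteinised supernatant after adding 2% 4-(dimethylamino)benzaldehyde. This supernatant came from HeLa cells seeded at 8000 per well in 96-well plates in phenol red-free DMEM with 10% FBS and, from 4 hours after seeding, exposed for 48 hours at 37 °C, 5% CO2 to DMSO-diluted compound dilutions, IFN-γ (final 100 ng/mL) and 0.4 mM L-Trp. The resulting data were fitted with a four-parameter logistic model in XLfit. Potency was taken from those fits.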

[2] = biological target: T2, cellular TDO2 in HEK293-TDO2 cells (Homo sapiens, UniProt P48775); test: 293-TDO2 cell-based assay (Kyn colorimetric); settings: 48 hours of incubation
T2 construct: expressed in transfected cells; host or cells: HEK293 (ATCC), stably transfected
T2 sequence (P48775 whole entry): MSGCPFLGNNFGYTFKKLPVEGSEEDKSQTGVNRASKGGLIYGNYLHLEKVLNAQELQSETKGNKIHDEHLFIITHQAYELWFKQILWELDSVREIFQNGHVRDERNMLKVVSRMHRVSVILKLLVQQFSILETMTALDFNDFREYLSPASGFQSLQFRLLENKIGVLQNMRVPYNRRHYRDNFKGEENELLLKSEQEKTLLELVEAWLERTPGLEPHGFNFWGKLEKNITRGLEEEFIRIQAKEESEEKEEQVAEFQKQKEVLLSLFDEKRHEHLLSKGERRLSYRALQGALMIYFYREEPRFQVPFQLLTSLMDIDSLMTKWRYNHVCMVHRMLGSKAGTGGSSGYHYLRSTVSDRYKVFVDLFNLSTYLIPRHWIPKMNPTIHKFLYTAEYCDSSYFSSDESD
Method in brief: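 HEK293 cells stably expressing TDO2 (10000/well, phenol red-free DMEM, 10% FBS) were dosed 4 h after plating and incubated 48 h at 37° C. Supernatant Kyn was measured after TCA precipitation by 4-(dimethylamino)benzaldehyde colour at 480 nm. IC50 came from four-parameter logistic fits.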

IDO1 [3] = biological target: T1, IDO1; test: IDO1 enzymatic assay; type: biochemical; parameters: His tag (N); made in house; host or cells: E. coli; settings: read-out: Enzyme IC50 IDO1
Method in brief: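 Compound was incubated with 50 nM His-tagged IDO1 from E. coli, 1.3 mM D-tryptophan, 5 mM L-ascorbic acid, methylene blue and 0.4 mg/mL catalase in 50 mM potassium phosphate pH 7.5, 0.1% BSA, at 24 °C for 1.5 hours. Activity was the slope of N'-formylkynurenine formation read continuously at 321 nm for 1 hour. IC50 was obtained from remaining activity versus compound concentration.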

T1 sequence (P14902 whole entry): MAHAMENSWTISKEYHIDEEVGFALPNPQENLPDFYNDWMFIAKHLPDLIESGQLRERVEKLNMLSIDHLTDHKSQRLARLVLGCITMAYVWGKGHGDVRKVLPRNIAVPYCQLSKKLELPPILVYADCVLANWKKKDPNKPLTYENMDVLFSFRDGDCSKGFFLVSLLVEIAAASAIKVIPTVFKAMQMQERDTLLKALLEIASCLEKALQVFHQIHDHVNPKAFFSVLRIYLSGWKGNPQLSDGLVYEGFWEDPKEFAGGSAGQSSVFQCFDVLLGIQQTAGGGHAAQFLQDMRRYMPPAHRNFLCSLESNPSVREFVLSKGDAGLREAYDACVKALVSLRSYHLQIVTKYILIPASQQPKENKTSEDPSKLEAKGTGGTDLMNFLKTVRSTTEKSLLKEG

| Structure (SMILES) | pEC50 (IDO1 [1]) | pEC50 [2] | pIC50 (IDO1 [3]) |
| --- | --- | --- | --- |
| OC(c1c(C2CC2)ccn2cncc12)C1CCN(c2ccc(Cl)c3ncccc23)CC1 (single isomer, unassigned) [Example C154a] | 7.74 | < 5.00 | 7.80 |
| OC(c1c(C2CC2)ccn2cncc12)C1CCN(c2ccnc3ccc(F)cc23)CC1 (stereo not drawn) [Example C151, (7-cyclopropylimidazo[1,5-a]pyridin-8-yl)(1-(6-fluoroquinolin-4-yl)piperidin-4-yl)methanol] | 6.43 | < 5.00 | 7.46 |
| CC(C)c1ccc2cncn2c1C(O)C1CCC(c2ccc(Cl)cc2)CC1 (stereo not drawn) [Example D115, (4-(4-chlorophenyl)cyclohexyl)(6-isopropylimidazo[1,5-a]pyridin-5-yl)methanol] | 6.80 | < 5.00 | 7.24 |
| OC(c1c(C2CC2)ccn2cncc12)C1CCN(c2ccc(F)c(F)c2)CC1 (stereo not drawn) [Example C141, (7-cyclopropylimidazo[1,5-a]pyridin-8-yl)(1-(3,4-difluorophenyl)piperidin-4-yl)methanol] | 6.98 | < 5.00 | 7.12 |
| O[C@H](c1c(C2CC2)ccc2cncn12)[C@H]1CC[C@@H](c2ccc(OC3CCOCC3)cc2)CC1 [Example D114d, (S)-(6-cyclopropylimidazo[1,5-a]pyridin-5-yl)((1 s,4R)-4-(4-((tetrahydro-2H-pyran-4-yl)oxy)phenyl)cyclohexyl)methanol] | 5.29 | < 5.00 | 5.85 |
| Cc1cccc(C2CCC(C(O)c3c(C4CC4)ccn4cncc34)CC2)c1 (racemic) [Example C111, (7-cyclopropylimidazo[1,5-a]pyridin-8-yl)(4-(m-tolyl)cyclohexyl)methanol] | 6.70 | < 5.00 | 7.09 |
| Cc1cccc([C@H]2CC[C@H]([C@@H](O)c3c(C4CC4)ccn4cncc34)CC2)c1 (single isomer, unassigned) [Example C111b] | < 5.00 | < 5.00 | < 5.00 |
| OC(c1c(C2CC2)ccc2cncn12)C1CCN(c2ccc(F)cc2)CC1 (stereo not drawn) [Example D171, (6-cyclopropylimidazo[1,5-a]pyridin-5-yl)(1-(4-fluorophenyl)piperidin-4-yl)methanol] | 7.44 | < 5.00 | 7.66 |
| O[C@@H](c1c(C2CC2)ccn2cncc12)[C@H]1CC[C@H](c2ccc(C(F)(F)F)cc2)CC1 (single isomer, unassigned) [Example C115b] | 5.02 | < 5.00 | < 5.00 |
| OC(c1c(C2CC2)ccn2cncc12)C1CCC(c2ccc(F)c(Cl)c2)CC1 (stereo not drawn) [Example C132, (4-(3-chloro-4-fluorophenyl)cyclohexyl)(7-cyclopropylimidazo[1,5-a]pyridin-8-yl)methanol] | 6.42 | < 5.00 | 6.92 |
| CC(C)c1ccc2cncn2c1[C@H](O)[C@H]1CC[C@H](c2cccc(Cl)c2)CC1 (single isomer, unassigned) [Example D168b] | 5.19 | < 5.00 | < 5.00 |
| COc1cccc([C@H]2CC[C@H]([C@@H](O)c3c(C4CC4)ccn4cncc34)CC2)c1 (single isomer, unassigned) [Example C114b] | < 5.00 | < 5.00 | 5.33 |
| O[C@H](c1c(C2CC2)ccc2cncn12)C1CCN(c2cccc(F)c2)CC1 [Example D172a] | 7.64 | < 5.00 | 7.85 |
| OC(c1c(C2CC2)ccc2cncn12)C1CCN(c2ccc(F)c3ncccc23)CC1 (stereo not drawn) [Example D175, (6-cyclopropylimidazo[1,5-a]pyridin-5-yl)(1-(8-fluoroquinolin-5-yl)piperidin-4-yl)methanol] | 7.68 | < 5.00 | 7.66 |
| OC(c1c(C2CC2)ccc2cncn12)C1CCC(c2ccc(F)c3ncccc23)CC1 (stereo not drawn) [Example D163, (6-cyclopropylimidazo[1,5-a]pyridin-5-yl)(4-(8-fluoroquinolin-5-yl)cyclohexyl)methanol] | 7.32 | < 5.00 | 7.40 |
| COc1ccccc1C1CCC(C(O)c2c(C3CC3)ccc3cncn23)CC1 (stereo not drawn) [Example D113, (6-cyclopropylimidazo[1,5-a]pyridin-5-yl)(4-(2-methoxyphenyl)cyclohexyl)methanol] | 7.02 | < 5.00 | 7.37 |
| COc1ccc(C2CCC(C(O)c3c(C4CC4)ccc4cncn34)CC2)c(Cl)c1 (stereo not drawn) [Example D147, (4-(2-chloro-4-methoxyphenyl)cyclohexyl)(6-cyclopropylimidazo[1,5-a]pyridin-5-yl)methanol] | 6.35 | < 5.00 | 7.37 |
| N#Cc1ccc(C2CCC(C(O)c3c(C4CC4)ccn4cncc34)CC2)cc1 (racemic) [Example C106, 4-(4-((7-cyclopropylimidazo[1,5-a]pyridin-8-yl)(hydroxy)methyl)cyclohexyl)benzonitrile] | 6.37 | < 5.00 | 7.30 |
| O[C@@H](c1c(C2CC2)ccc2cncn12)C1CCN(c2cccc(Cl)c2)CC1 (single isomer, unassigned) [Example D173b] | 5.13 | < 5.00 | 5.57 |
| OC(c1c(C2CC2)ccn2cncc12)C1CCN(c2ccc(Cl)c3ncccc23)CC1 (single isomer, unassigned) [Example C154b] | 5.19 | < 5.00 | 5.54 |
| COc1ccccc1C1CCC(C(O)c2c(C3CC3)ccn3cncc23)CC1 (stereo not drawn) [Example C113, (7-Cyclopropylimidazo[1,5-a]pyridin-8-yl)(4-(2-methoxyphenyl)cyclohexyl)methan] | 6.83 | < 5.00 | 7.26 |
| OC(c1c(C2CC2)ccn2cncc12)C1CCC(c2ccc(C(F)(F)F)nc2)CC1 (stereo not drawn) [Example C120, (7-cyclopropylimidazo[1,5-a]pyridin-8-yl)(4-(6-(trifluoromethyl)pyridin-3-yl)cyclohexyl)methanol] | 5.66 | < 5.00 | 7.02 |

Second part, the compound after the results:

| pEC50 (IDO1 [1]) | pEC50 [2] | pIC50 (IDO1 [3]) | Structure (SMILES) |
| --- | --- | --- | --- |
| 7.12 | < 5.00 | 7.24 | OC(c1c(C2CC2)ccc2cncn12)C1CCC(c2cccc(F)c2)CC1 (stereo not drawn) [Example D156, (6-cyclopropylimidazo[1,5-a]pyridin-5-yl)(4-(3-fluorophenyl)cyclohexyl)methanol] |
| 6.73 | < 5.00 | 7.66 | CNC(=O)c1ccc(C2CCC(C(O)c3c(C4CC4)ccc4cncn34)CC2)cc1 (stereo not drawn) [Example D124, 4-(4-((6-cyclopropylimidazo[1,5-a]pyridin-5-yl)(hydroxy)methyl)cyclohexyl)-N-methylbenzamide] |
| < 5.00 | < 5.00 | 5.72 | OC(c1c(C2CC2)ccc2cncn12)[C@H]1CC[C@@H](c2ccc(Cl)cc2)CC1 (single isomer, unassigned) [Example D103a] |
| 5.25 | < 5.00 | 5.57 | OC(c1c(C2CC2)ccc2cncn12)[C@H]1CC[C@H](c2ccc3ccsc3c2)CC1 (single isomer, unassigned) [Example D134b] |
| 6.56 | < 5.00 | 7.49 | OC(c1c(C2CC2)ccc2cncn12)[C@H]1CC[C@H](c2ccc(Cl)cc2F)CC1 (single isomer, unassigned) [Example D131a] |
| 6.89 | < 5.00 | 7.82 | NC(=O)Nc1ccc([C@H]2CC[C@H]([C@H](O)c3c(C4CC4)ccc4cncn34)CC2)cc1 [Example D160, 1-(4-((1S,4r)-4-((S)-(6-cyclopropylimidazo[1,5-a]pyridin-5-yl)(hydroxy)methyl)cyclohexyl)phenyl)urea] |
| 7.48 | < 5.00 | 7.82 | CC(=O)COc1ccc([C@H]2CC[C@H]([C@H](O)c3c(C4CC4)ccc4cncn34)CC2)cc1 [Example D151, 1-(4-((1 S,4r)-4-((S)-(6-cyclopropylimidazo[1,5-a]pyridin-5-yl)(hydroxy)methyl)cyclohexyl)phenoxy)propan-2-one] |
| < 5.00 | < 5.00 | < 5.00 | O[C@@H](c1c(C2CC2)ccc2cncn12)[C@H]1CC[C@H](c2ccc3ncccc3c2)CC1 (single isomer, unassigned) [Example D157b] |
| 5.16 | < 5.00 | 5.11 | OC(c1c(C2CC2)ccc2cncn12)[C@H]1CC[C@H](c2ccc(Cl)cc2)CC1 (single isomer, unassigned) [Example D103b] |
| 5.28 | < 5.00 | 6.01 | CNC(=O)c1ccc([C@H]2CC[C@H]([C@@H](O)c3c(C4CC4)ccc4cncn34)CC2)cc1 (single isomer, unassigned) [Example D124b] |
| 5.59 | < 5.00 | 5.96 | Oc1ccc([C@H]2CC[C@H]([C@@H](O)c3c(C4CC4)ccc4cncn34)CC2)cc1 [Example D106b, 4-((1R,4r)-4-((R)-(6-cyclopropylimidazo [1,5-a]pyridin-5-yl)(hydroxy)methyl)cyclohexyl)phenol] |
